In patent publication US6599885B2, “Derivatives of erythromycin, clarithromycin, roxithromycin or azithromycin with antibiotic and mucolytic activity” (Russinsky Limited, priority 1998, dated 2003):
In brackets after ≈: the same amount, converted by molar mass. Like-named read-outs stand apart in the source and are kept apart here.

System: Micrococcus luteus
Experiment: MIC liquid tube assay (antibiotic activity)
Type: cell-based
Conditions: liquid tube assay in nutrient broth, 37° C., growth observed after 24 and 48 hours, MIC = last concentration where growth inhibited
Experimental: Micrococcus luteus from stock was streaked on a nutrient agar plate to confirm colony morpbiology, colour and purity. After 24 hours incubation at 37° C. an isolated colony is picked and inoculated into 10 ml of nutrient broth. This is incubated overnight at 37° C. and is subsequently used as the inoculum. 10 mg of each of the test compounds is weighed and dissolved in 10 ml of […] methanol in sterile 20 ml universal containers. This is then diluted with ringers buffer solution to give a concentration of 1 mg/ml. Quantitation of activity is determined using an MIC ([…]) liquid tube assay. For each test substance the following concentrations are set up: 10 μg/ml, 5 μg/ml, 1 μg/ml, 0.5 μg/ml, 0.1 μg/ml, 0.05 μg/ml and 0.01 μg/ml. Each contained nutrient broth and 0.1 ml of overnight culture of Micrococcus luteus. The tubes were incubated at 37° C. and observed for growth after 24 hours and 48 hours. Growth is assessed by dense turbidity, optical density at 660 nm using a spectrophotometer or clarity. The MIC is the last concentration where growth inhibited.

[1] = Micrococcus luteus, read-out: MIC

Row | Compound | MIC [1] | MIC
1 | CCC(=O)O[C@H]1[C@H](O[C@@H]2[C@@H](C)[C@H](O[C@H]3C[C@@](C)(OC)[C@@H](O)[C@H](C)O3)[C@@H](C)C(=O)O[C@H](CC)[C@@](C)(O)[C@H](O)[C@@H](C)C(=O)[C@H](C)C[C@@]2(C)O)O[C@H](C)C[C@@H]1N(C)C [Erythromycin-propionate, Erythromycin Propionate, reference compound] | 0.01 to 0.05 µg/mL (≈ 0.0127 to 0.0633 µM) | –
2 | CC[C@H]1OC(=O)[C@H](C)[C@@H](O[C@H]2C[C@@](C)(OC)[C@@H](O)[C@H](C)O2)[C@H](C)[C@@H](O[C@@H]2O[C@H](C)C[C@H](N(C)C)[C@H]2O)[C@](C)(OC)C[C@@H](C)C(=O)[C@H](C)[C@@H](O)[C@]1(C)O [Clarithromycin] | ≤ 0.01 µg/mL | –
3 | CC(=O)N[C@@H](CS)C(=O)O.CC[C@H]1OC(=O)[C@H](C)[C@@H](O[C@H]2C[C@@](C)(OC)[C@@H](O)[C@H](C)O2)[C@H](C)[C@@H](O[C@@H]2O[C@H](C)C[C@H](N(C)C)[C@H]2O)[C@](C)(OC)C[C@@H](C)C(=O)[C@H](C)[C@@H](O)[C@]1(C)O [Clarithromycin-N-acetylcysteinate [1:1], Clarithromycin-N-Acetylcysteinate-[1:1]-Salt] | – | ≦0.01 μg/ml
4 | Clarithromycin-N-Acetylcysteinate-[1:4]-Salt [Clarithromycin-N-acetylcysteinate [1:4]] | – | 0.01 to 0.05 µg/mL
5 | Erythromycin Propionate-N-Acetylcysteine-[1:1]-Salt [Erythromycin-N-acetylcysteinate [1:1]] | – | 0.01 to 0.05 µg/mL
6 | Erythromycin Propionate-N-Acetylcysteine [1:1.8]-Adduct [Erythromycin-N-acetylcysteinate [1:1.8]] | – | ≦0.01 μg/ml
7 | Erythromycin Propionate-N-Acetylcysteine [1:4]-Adduct [Erythromycin-N-acetylcysteinate [1:4]] | – | 0.05 to 0.1 µg/mL
